In brackets after ≈: the same amount, converted by molar mass. Where two headings read alike, the source gives them in different places. One block for each compound: values may come before it.
Assays:
[1] = tested on: M. mycetomatis genome strain MM55; experiment: CLSI M38-A2 based in vitro susceptibility screening (XTT or resazurin), growth at fixed concentration; assay type: cell-based, Madurella mycetomatis; details: Madurella mycetomatis
M. mycetomatis MM55 = experiment: IC50 determination, 2-fold dilution series 16 to 0.03125 μM; assay type: cell-based, Madurella mycetomatis
[2] = tested on: ten different M. mycetomatis isolates; parameters: method as in PMID 24945848, PMID 22964246, PMID 31904836; details: asterisk: determined in previous works ref 19-21; cited from earlier work
[3] = tested on: ten different M. mycetomatis isolates; experiment: MIC / MIC50 determination (XTT) in ten M. mycetomatis isolates; assay type: cell-based, Madurella mycetomatis; details: for MIC50 / MIC: Madurella mycetomatis
[4] = tested on: M. mycetomatis isolate MM55; experiment: M. mycetomatis grain infection model in G. mellonella larvae, survival; assay type: in vivo, Galleria mellonella; parameters: In vivo efficacy, Larvae survival %: concentration or dose not given beside the values; details: for Effect on larvae survival Day 4 (words): day four
[5] = mean, read-out: Percentage survival at 25um, 25 uM mean
[6] = replicate A, read-out: Percentage survival at 25um, 25 um A
[7] = replicate B, read-out: Percentage survival at 25um, 25 uM B
[8] = replicate C, read-out: Percentage survival at 25um, 25 uM C
[9] = 100 uM, mean, read-out: Percentage survival at 100um, 100 uM mean
[10] = 100 uM, replicate (first column), read-out: Percentage survival at 100um, 100 uM A
[11] = 100 uM, replicate (second column), read-out: Percentage survival at 100um, 100 uM A
[12] = 100 uM, replicate (third column), read-out: Percentage survival at 100um, 100 uM A
[13] = Madurella mycetomatis, MM55, Table 2, M. mycetomatis MM55, read-out: IC50
[14] = Madurella mycetomatis, MM55, mean, read-out: IC50 mean
[15] = Madurella mycetomatis, MM55, read-out: IC90 mean
[16] = Madurella mycetomatis, MM55, replicate 1, read-out: IC50 1
[17] = Madurella mycetomatis, MM55, replicate 1, read-out: IC90 1
[18] = Madurella mycetomatis, MM55, replicate 2, read-out: IC50 2
[19] = Madurella mycetomatis, MM55, replicate 2, read-out: IC90 2
[20] = Madurella mycetomatis, MM55, replicate 3, read-out: IC50 3
[21] = Madurella mycetomatis, MM55, replicate 3, read-out: IC90 3
[22] = median MIC over ten M. mycetomatis isolates, no asterisk, read-out: MIC50
[23] = isolate CBS247.48, read-out: MIC CBS247.48
[24] = isolate MM14, read-out: MIC MM14
[25] = isolate MM45, read-out: MIC MM45
[26] = isolate MM55, read-out: MIC MM55
[27] = isolate ParijsAl1, read-out: MIC ParijsAl1
[28] = isolate Peru72012, read-out: MIC Peru72012
[29] = 20 μM per larvae, vs infected control
[30] = G. mellonella larvae infected with M. mycetomatis

IC50 (M. mycetomatis MM55; [13]): 40 nM
IC50 (M. mycetomatis MM55; [14]): 630 nM
IC90 (M. mycetomatis MM55; [15]): 1080 nM
IC50 (M. mycetomatis MM55; [16]): 350 nM
IC90 (M. mycetomatis MM55; [17]): 680 nM
IC50 (M. mycetomatis MM55; [18]): 750 nM
IC90 (M. mycetomatis MM55; [19]): 1300 nM
IC50 (M. mycetomatis MM55; [20]): 790 nM
IC90 (M. mycetomatis MM55; [21]): 1260 nM
SMILES: CNCC(=O)OCc1cccnc1N(C)C(=O)OC(C)[n+]1cnn(C[C@](O)(c2cc(F)ccc2F)[C@@H](C)c2nc(-c3ccc(C#N)cc3)cs2)c1 (stereo partly shown) [MMV1634494, Isavuconazonium, reference compound]
activity at 25 µM [1, 5]: -2.78%
activity at 25 µM [1, 6]: -3.3%
activity at 25 µM [1, 7]: -6.46%
activity at 25 µM [1, 8]: 1.41%
activity at 100 µM [1, 9]: 7.96%
activity at 100 µM [1, 10]: 2.09%
activity at 100 µM [1, 11]: 14.1%
activity at 100 µM [1, 12]: 7.75%
Drug static or cidal (M. mycetomatis MM55): Cidal
MIC50 [2]: 0.04 µM
MIC range [2]: <0.02 to 0.17 µM

IC50 (M. mycetomatis MM55; [13]): < 20 nM
IC50 (M. mycetomatis MM55; Madurella mycetomatis, MM55, mean of replicates, read-out: IC50 mean): < 98 nM
IC90 (M. mycetomatis MM55; Madurella mycetomatis, MM55, mean of replicates, read-out: IC90 mean): < 98 nM
IC50 (M. mycetomatis MM55; Madurella mycetomatis, MM55, replicate 1, read-out: IC50 1 um): < 98 nM
IC90 (M. mycetomatis MM55; Madurella mycetomatis, MM55, replicate 1, read-out: IC90 1 um): < 98 nM
IC50 (M. mycetomatis MM55; Madurella mycetomatis, MM55, replicate 2, read-out: IC50 2 um): < 98 nM
IC90 (M. mycetomatis MM55; Madurella mycetomatis, MM55, replicate 2, read-out: IC90 2 um): < 98 nM
IC50 (M. mycetomatis MM55; Madurella mycetomatis, MM55, replicate 3, read-out: IC50 3 um): < 98 nM
IC90 (M. mycetomatis MM55; Madurella mycetomatis, MM55, replicate 3, read-out: IC90 3 um): < 98 nM
IC50 (M. mycetomatis MM55; Table 2, M. mycetomatis MM55, read-out: IC50): < 30 nM
MIC50 [3, 22]: < 0.03 µM
MIC50 ([3]; over the tested M. mycetomatis isolates, read-out: MIC50 mean): < 0.0312 µM
MIC [3, 23]: < 0.0312 µM
MIC [3, 24]: < 0.0312 µM
MIC [3, 25]: < 0.0312 µM
MIC [3, 26]: < 0.0312 µM
MIC ([3]; isolate P1, read-out: MIC P1): < 0.0312 µM
MIC [3, 27]: < 0.0312 µM
MIC [3, 28]: < 0.0312 µM
MIC ([3]; isolate So1, read-out: MIC So1): < 0.0312 µM
MIC ([3]; isolate i1, read-out: MIC i1): < 0.0312 µM
MIC ([3]; isolate i11, read-out: MIC i11): < 0.0312 µM
MIC50 (μM) ([3]; median MIC over ten M. mycetomatis isolates, no asterisk): <0.03 (≦0.03) μM
SMILES: N#C/C(=C1/SC[C@@H](c2ccc(Cl)cc2Cl)S1)n1ccnc1 [MMV1782224, Luliconazole, reference compound]
activity at 25 µM ([1]; mean of three, M. mycetomatis MM55, read-out: Percentage survival at 25um, 25 uM mean): 1.75%
activity at 25 µM ([1]; replicate A, M. mycetomatis MM55, read-out: Percentage survival at 25um, 25 um A): -0.617%
activity at 25 µM ([1]; replicate B, M. mycetomatis MM55, read-out: Percentage survival at 25um, 25 uM B): 1.37%
activity at 25 µM ([1]; replicate C, M. mycetomatis MM55, read-out: Percentage survival at 25um, 25 uM C): 4.51%
activity at 100 µM ([1]; 100 uM, mean of three, M. mycetomatis MM55, read-out: Percentage survival at 100um, 100 uM mean): 6.85%
activity at 100 µM ([1]; 100 uM, replicate 1, M. mycetomatis MM55, read-out: Percentage survival at 100um, 100 uM A (first replicate column)): -0.151%
Percent fungal survival at 100 µM ([1]; 100 uM, replicate 2, M. mycetomatis MM55, read-out: Percentage survival at 100um, 100 uM A (second replicate column)): 8.79%
activity at 100 µM ([1]; 100 uM, replicate 3, M. mycetomatis MM55, read-out: Percentage survival at 100um, 100 uM A (third replicate column)): 11.9%
Drug static or cidal (M. mycetomatis MM55; M. mycetomatis): Cidal
Effect on larvae survival Day 4 (words) [4, 29]: prolonged larvae survival
In vivo efficacy, Enhanced survival compared to control? [4, 30]: no
In vivo efficacy, Larvae survival % [4, 30]: 11.1%

IC50 (M. mycetomatis MM55; [13]): 3220 nM
IC50 (M. mycetomatis MM55; [14]): 3220 nM
IC90 (M. mycetomatis MM55; [15]): > 25000 nM
IC50 (M. mycetomatis MM55; [16]): 2880 nM
IC90 (M. mycetomatis MM55; [17]): > 25000 nM
IC50 (M. mycetomatis MM55; [18]): 3520 nM
IC90 (M. mycetomatis MM55; [19]): 6200 nM
IC50 (M. mycetomatis MM55; [20]): 3250 nM
IC90 (M. mycetomatis MM55; [21]): > 25000 nM
MIC50 ([3]; Table 3 and Fig 5, benzimidazole carbamates, M. mycetomatis, read-out: MIC50): 4 µM (≈ 0.821 µg/mL)
MIC50 [3, 22]: 4 µM (≈ 0.821 µg/mL)
MIC50 ([3]; over the isolates tested, read-out: MIC50 mean): 4 µM (≈ 0.821 µg/mL)
MIC [3, 23]: 4 µM (≈ 0.821 µg/mL)
MIC [3, 24]: 4 µM (≈ 0.821 µg/mL)
MIC [3, 25]: 4 µM (≈ 0.821 µg/mL)
MIC [3, 26]: 4 µM (≈ 0.821 µg/mL)
MIC ([3]; isolate P1, read-out: MIC P1): 4 µM (≈ 0.821 µg/mL)
MIC [3, 27]: 4 µM (≈ 0.821 µg/mL)
MIC [3, 28]: 4 µM (≈ 0.821 µg/mL)
MIC ([3]; isolate So1, read-out: MIC So1): 4 µM (≈ 0.821 µg/mL)
MIC ([3]; isolate i1, read-out: MIC i1): 4 µM (≈ 0.821 µg/mL)
MIC ([3]; isolate i11, read-out: MIC i11): 4 µM (≈ 0.821 µg/mL)
SMILES: COC(=O)Nc1nc2c(C)cccc2[nH]1 [MMV1782387]
activity at 25 µM [1, 5]: 4.41%
activity at 25 µM [1, 6]: 0.37%
activity at 25 µM [1, 7]: 7.58%
activity at 25 µM [1, 8]: 5.29%
activity at 100 µM [1, 9]: 15.6%
activity at 100 µM [1, 10]: 4.59%
activity at 100 µM [1, 11]: 6.95%
activity at 100 µM [1, 12]: 35.2%
Drug static or cidal (M. mycetomatis MM55): Static
Larvae survival rate on day ten ([4]; 20 μM per larvae at 4, 28, 52 h after infection, day ten): 28.9%
Effect on larvae survival Day 4 (words) [4, 29]: Increase survival
Effect on larvae survival Day 10 (words) ([4]; 20 μM per larvae, vs infected control, day ten): able to increase larvae survival
In vivo efficacy, Enhanced survival compared to control? ([4]; in vivo): yes **
In vivo efficacy, Larvae survival % ([4]; in vivo): 28.9%
